What was measured:
[1] = test system: standard and clinical Gram-positive and Gram-negative bacterial strains; assay: MIC range over standard and clinical strains (abstract); assay type: cell-based
Procedure: Eleven novel imide-tetrazoles were synthesized. In the initial stage of research, in silico structure-based pharmacological prediction was conducted. All compounds were screened for antimicrobial activity using standard and clinical strains. Within the studied group, compounds 1–3 were recognized as leading structures with the most promising results in antimicrobial studies. […] Additionally, all three inhibited the growth of all clinical Staphylococci panels: Staphylococcus aureus (T5592; T5591) and Staphylococcus epidermidis (5253; 4243) with MIC values of 0.8 μg/mL. Selected compounds were examined in topoisomerase IV decatenation assay and DNA gyrase supercoiling assay, followed by suitable molecular docking studies to explore the possible binding modes. […] The compounds 1–3 proposed here provide a promising basis for further exploration towards novel antimicrobial drug candidates.
The antimicrobial assays were conducted using reference strains of bacteria derived from international microbe collections: American Type Culture Collection (ATCC) and National Collection of Type Culture (NCTC). The following standard strains of bacteria were used: Gram-positive—Staphylococcus aureus NCTC 4163, Staphylococcus aureus ATCC 25923, Staphylococcus aureus ATCC 6538, Staphylococcus aureus ATCC 29213, Staphylococcus epidermidis ATCC 12228, Staphylococcus epidermidis ATCC 35984, Gram-negative: Escherichia coli ATCC 25922, Pseudomonas aeruginosa ATCC 15442. […] MIC was determined by the two-fold serial broth microdilution method in 96-well microtitration plates using Mueller–Hinton II broth medium (Becton Dickinson, Franklin Lakes, NJ, USA). […]

[2] = test system: standard bacteria strains; assay: MIC ranges over the panel of standard strains; assay type: cell-based
Procedure: All synthesized compounds were tested in vitro against a set of bacteria, including representative standard Gram-positive and Gram-negative rods. Compounds were screened for their minimal inhibitory concentrations (MICs). […] These three compounds were also found to be good inhibitors of the growth of Gram-negative rods: […] The antimicrobial assays were conducted using reference strains of bacteria derived from international microbe collections: American Type Culture Collection (ATCC) and National Collection of Type Culture (NCTC). The following standard strains of bacteria were used: Gram-positive-Staphylococcus aureus NCTC 4163, Staphylococcus aureus ATCC 25923, Staphylococcus aureus ATCC 6538, Staphylococcus aureus ATCC 29213, Staphylococcus epidermidis ATCC 12228, Staphylococcus epidermidis ATCC 35984, Gram-negative: Escherichia coli ATCC 25922, Pseudomonas aeruginosa ATCC 15442. Clinical strains of bacteria used in this study: Gram-positive: Staphylococcus epidermidis 5253, Staphylococcus epidermidis 4243, Staphylococcus aureus […], Staphylococcus aureus […] and Gram-negative: Escherichia coli 520, Escherichia coli 600, Klebsiella pneumoniae 510 and Pseudomonas aeruginosa 659 were obtained from the collection of the Department of Pharmaceutical Microbiology, Medical University of Warsaw, Poland and they were isolated from different biological materials taken from the patients hospitalized in the Warsaw Medical University hospitals. Antimicrobial activity was examined by the minimal inhibitory concentration (MIC) method under standard procedures provided by CLSI with some modifications. MIC was determined by the two-fold serial broth microdilution method in 96-well microtitration plates using Mueller-Hinton II broth medium (Becton Dickinson, Franklin Lakes, NJ, USA). The final inoculum of all studied bacteria was 10^6 CFU/mL (colony forming unit per milliliter). The stock solution of tested compounds was prepared in dimethyl sulfoxide (DMSO) and diluted to a maximum of 1% of solvent content with a sterile medium.

[3] = Gram-negative rods: E. coli and P. aeruginosa (standard strains)
[4] = against standard Gram-positive Staphylococci

SMILES | MIC values, range [1] | MIC values, range [2, 3] | MIC values, range [2, 4]
CC1=C(C)C2(C)CC1(C)C1C(=O)N(Nc3nnnn3-c3cccc(C(F)(F)F)c3)C(=O)C12 (stereo not drawn) [Compound 1, 4,5,6,7-Tetramethyl-2-((1-(3-(trifluoromethyl)phenyl)-1H-tetrazol-5-yl)amino)-3a,4,7,7a-tetrahydro-1H-4,7-methanoisoindole-1,3(2H)-dione] | 0.8 to 3.2 µg/mL | 0.4 to 25.6 µg/mL | 0.1 to 3.2 µg/mL
CC1=C(C)C2(C)CC1(C)C1C(=O)N(Nc3nnnn3-c3ccccc3Cl)C(=O)C12 (stereo not drawn) [Compound 2, 2-((1-(2-Chlorophenyl)-1H-tetrazol-5-yl)amino)-4,5,6,7-tetramethyl-3a,4,7,7a-tetrahydro-1H-4,7-methanoisoindole-1,3(2H)-dione] | 0.8 to 3.2 µg/mL | 0.4 to 25.6 µg/mL | 0.1 to 3.2 µg/mL
CC1=C(C)C2(C)CC1(C)C1C(=O)N(Nc3nnnn3-c3ccccc3Br)C(=O)C12 (stereo not drawn) [Compound 3, 2-((1-(2-Bromophenyl)-1H-tetrazol-5-yl)amino)-4,5,6,7-tetramethyl-3a,4,7,7a-tetrahydro-1H-4,7-methanoisoindole-1,3(2H)-dione] | 0.8 to 3.2 µg/mL | 0.4 to 25.6 µg/mL | 0.1 to 3.2 µg/mL
